Source: PMC3758034, “New Insight into the SAR of Pyrimido [4,5-b][1,4] Benzothiazines as 15-lipoxygenase Inhibitors” (Iranian Journal of Basic Medical Sciences, 2013)

Molecular target: soybean 15-lipoxygenase (SLO) (Glycine max, UniProt P08170)
Test: SLO screening assay (spectrophotometric MBTH-DMAB peroxide formation method, 598 nm)
Format: biochemical
Conditions: pH = 8.3 versus pH = 7.0
Procedure: Linoleic acid and two assay solutions (A and B) were prepared in advance. Solution A was 50 mM DMAB in a l00 mM phosphate buffer (pH 7.0). Solution B was a mixture of l0 mM MBTH (3 mL), hemoglobin (5 mg/mL, 3 mL) in 50 mM phosphate buffer at pH 5.0 (25 mL). A linoleic acid solution was prepared by mixing 5 mg of linoleic acid with 0.5 mL ethanol and then diluting with KOH 100 mM to a final volume of 5 mL. […] A control test was done with the same volume of ethanol. After the pre-incubation, linoleic acid solution (50 µL) was added to start the peroxidation reaction, and, 7 min later, solution A (270 µL) and then solution B (130 µL) was added to start the color formation. 5 min later, 200 µL of a 2% SDS solution was added to terminate the reaction. The absorbance at 598 nm was compared with control test. The IC50 results are outlined in Table 1.
It is interesting to note that the aforementioned amino acids with the exception of Val769 and Phe576 are conserved ([18], [19]). […] The inhibitory activity of compounds 1a-f, 2a-f towards SLO enzyme was determined by measuring the amount of peroxide formation. In this method, with the help of a spectrophotometer and by using a mixture of MBTH (3-methyl-2-benzothiazolonhydrazone) and DMAB (3-dimethylaminobenzoic acid) indicators in the presence of hemoglobin at the wavelength of 598 nm, the peroxide concentration was determined ([16]).

Sequence of soybean 15-lipoxygenase (SLO) (P08170 whole entry): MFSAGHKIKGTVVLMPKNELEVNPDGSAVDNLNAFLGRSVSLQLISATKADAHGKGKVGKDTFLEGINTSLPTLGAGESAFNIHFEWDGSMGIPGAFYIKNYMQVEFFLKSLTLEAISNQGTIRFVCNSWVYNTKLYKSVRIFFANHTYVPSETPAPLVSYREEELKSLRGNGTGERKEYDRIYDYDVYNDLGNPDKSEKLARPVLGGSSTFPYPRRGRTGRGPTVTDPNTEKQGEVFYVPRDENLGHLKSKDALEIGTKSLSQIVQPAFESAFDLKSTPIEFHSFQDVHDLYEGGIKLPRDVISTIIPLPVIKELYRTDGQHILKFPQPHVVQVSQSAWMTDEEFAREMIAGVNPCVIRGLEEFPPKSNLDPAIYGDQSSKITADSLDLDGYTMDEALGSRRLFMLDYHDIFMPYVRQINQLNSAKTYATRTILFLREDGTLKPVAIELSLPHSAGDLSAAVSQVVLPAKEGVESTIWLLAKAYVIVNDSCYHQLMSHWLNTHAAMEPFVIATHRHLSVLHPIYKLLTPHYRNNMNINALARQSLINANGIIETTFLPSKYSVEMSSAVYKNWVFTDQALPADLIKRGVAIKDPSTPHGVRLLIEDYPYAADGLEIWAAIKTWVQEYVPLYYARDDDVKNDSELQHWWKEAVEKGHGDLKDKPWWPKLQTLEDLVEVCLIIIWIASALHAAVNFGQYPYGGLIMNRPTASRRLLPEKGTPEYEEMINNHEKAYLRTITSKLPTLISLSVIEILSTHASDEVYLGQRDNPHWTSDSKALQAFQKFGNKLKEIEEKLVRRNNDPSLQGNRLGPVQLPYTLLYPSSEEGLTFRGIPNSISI

Row | SMILES | IC50 at higher pH
1 | Cc1nc(N2CCC(C)CC2)nc2c1Nc1ccccc1S2 [2c] | nearly unchanged
2 | CC1CCN(c2ncc3c(n2)Sc2ccccc2N3)CC1 [1c] | nearly unchanged
